Columns and labels:
ZSF1-Ob rats = assay: Interventional study in pre-HFpEF ZSF1-Ob rats (obesity, diabetes, hypertension, diastolic dysfunction); assay type: in vivo, rat
Method: A hybrid rat that was a cross between a ZDF female and an SHHF male was utilized.
Briefly, we performed an interventional study in pre-HFpEF rats (15 weeks old) affected by obesity, diabetes, hypertension, diastolic dysfunction, and administered either vehicle, VASTIRAS™ (proANP31-67; VAS; 50 ng/Kg/day administered subcutaneously via Alzet osmotic pump), ENTRESTO™ (ENT; 68 mg/Kg/day administered orally via gavage), or VAS+ENT (VAS/ENT).

[1] = tested on: prostaglandin E2 (PGE2) formation in the kidney; conditions: Chiou & Vesely 1995; cited from earlier work
[2] = tested on: ischemia-induced acute tubular necrosis and renal failure; conditions: Recombinant proANP31-67; Clark et al. 2000; cited from earlier work
[3] = tested on: patients with congestive heart failure; conditions: Delacroix et al. 2016; cited from earlier work
[4] = tested on: neprilysin and other endopeptidases; conditions: cited from earlier work
[5] = in vivo; cited from earlier work
[6] = ZSF1-Ob rats, autopsy, VAS 50 ng/Kg/day sc, ENT 68 mg/Kg/day oral, FIGS. 3-4
[7] = ZSF1-Ob rats, cardiac ultrasound

proANP31-67 (EVVPPQVLSEPNEEAGAALSPLPEVPPWTGEVSPAQR) [VAS]
Elevated blood pressure (ZSF1-Ob rats; ZSF1-Ob rats treated from 15 weeks old, assessed at 25 weeks-old, VAS 50 ng/Kg/day sc, ENT 68 mg/Kg/day oral gavage, FIGS. 5-6): not affected
atria weight (AW)/TL (ZSF1-Ob rats; [6]): tended to decrease
body weight (BW) (ZSF1-Ob rats; [6]): tended to decrease
heart weight (HW)/tibia length (TL) (ZSF1-Ob rats; [6]): tended to decrease
kidney weight (KW)/TL (ZSF1-Ob rats; [6]): tended to decrease
cardiac output (ZSF1-Ob rats; [7]): improved
global longitudinal strain (GLS) (ZSF1-Ob rats; [7]): tended to increase
renal vascularity (ZSF1-Ob rats; ZSF1-Ob rats, renal ultrasound, FIGS. 7-13): preserved
prostaglandin E2 (PGE2) formation in the kidney [1]: stimulate
ischemia-induced acute tubular necrosis and renal failure [2]: protect
treatment for renal impairment in patients with congestive heart failure [3]: safe and effective
degradation by neprilysin and other endopeptidases [4]: resistant
excretion in urine [5]: excreted largely intact
